Species on record: Rattus norvegicus
Assay: Open TG-GATES - Regimen: Daily Repeat
Assay type: toxicity, organism-based, Sprague-Dawley
Design: regimen Daily Repeat, gender Male, age 6 weeks
Conditions: in vivo, po, route gavage; for Bas / Eos / Fbg / Hb / Ht / MCHC / MCV / Mono / Neu / Plat / RBC / Ret / WBC: tissue Blood; for KIDNEY_L / KIDNEY_R / KIDNEY_TOTAL: tissue Kidney; for LIVER: tissue Liver; for ALP / AST / BUN / CRE / DBIL / GLC / K / LDH / Na / PL / RALB / TBIL / TC / TG / TP / gamma-GTP / IP: tissue Plasma
[1] = 0 mg/kg, 72 h, dose level Control, time 3 day
[2] = 0 mg/kg, […], dose level Control, time 7 day
[3] = 0 mg/kg, […], dose level Control, time 14 day
[4] = 0 mg/kg, […], dose level Control, time 28 day
[5] = 20 mg/kg, 72 h, dose level Low, time 3 day
[6] = 20 mg/kg, […], dose level Low, time 7 day
[7] = 20 mg/kg, […], dose level Low, time 14 day
[8] = 20 mg/kg, […], dose level Low, time 28 day

CO[C@H]1/C=C/O[C@@]2(C)Oc3c(C)c(O)c4c(O)c(c(/C=N/N5CCN(C)CC5)c(O)c4c3C2=O)NC(=O)/C(C)=C\C=C\[C@H](C)[C@H](O)[C@@H](C)[C@@H](O)[C@@H](C)[C@H](OC(C)=O)[C@@H]1C [RIFAMPIN]
TERMINAL_BW [1]: 242.1 g
Bas [1]: 0%
Eos [1]: 1%
Fbg [1]: 239 mg/dL
Hb [1]: 13.9 g/dL
Ht [1]: 42%
MCHC [1]: 33.1%
MCV [1]: 63.9 fL
Mono [1]: 7.2%
Neu [1]: 13.8%
Plat [1]: 126 x10_4/uL
RBC [1]: 657.6 x10_4/ul
Ret [1]: 6.4%
WBC [1]: 129.1 x10_2/uL
KIDNEY_L [1]: 1 g
KIDNEY_R [1]: 1 g
KIDNEY_TOTAL [1]: 2 g
LIVER [1]: 12.4 g
ALP [1]: 966.4 IU/L
AST [1]: 62.4 IU/L
BUN [1]: 19 mg/dL
CRE [1]: 0.6 mg/dL
DBIL [1]: 0.004 mg/dL
GLC [1]: 199.2 mg/dL
K [1]: 5 meq/L
LDH [1]: 110.6 IU/L
Na [1]: 139.8 meq/L
PL [1]: 157 mg/dL
RALB [1]: 3.7 g/dL
TBIL [1]: 0.3 mg/dL
TC [1]: 83.8 mg/dL
TG [1]: 112.8 mg/dL
TP [1]: 6.1 g/dL
gamma-GTP [1]: 2 IU/L
TERMINAL_BW [2]: 275.2 g
TERMINAL_BW [3]: 316.4 g
TERMINAL_BW [4]: 390.1 g
Bas [2]: 0%
Eos [2]: 0%
Fbg [2]: 231.8 mg/dL
Hb [2]: 14.1 g/dL
Ht [2]: 42.8%
MCHC [2]: 33.1%
MCV [2]: 63.2 fL
Mono [2]: 6.2%
Neu [2]: 13.6%
Plat [2]: 107.2 x10_4/uL
RBC [2]: 677.2 x10_4/ul
Ret [2]: 5.8%
WBC [2]: 122.2 x10_2/uL
Bas [3]: 0%
Eos [3]: 0.8%
Fbg [3]: 235.6 mg/dL
Hb [3]: 15 g/dL
Ht [3]: 45%
MCV [3]: 59.6 fL
Mono [3]: 6%
Neu [3]: 11.8%
Plat [3]: 112.5 x10_4/uL
RBC [3]: 754.8 x10_4/ul
Ret [3]: 3.5%
WBC [3]: 153.6 x10_2/uL
Bas [4]: 0%
Eos [4]: 0.8%
Hb [4]: 15.7 g/dL
Ht [4]: 47%
MCHC [4]: 33.4%
MCV [4]: 58.9 fL
Mono [4]: 3%
Neu [4]: 12.4%
RBC [4]: 799.6 x10_4/ul
Ret [4]: 2.2%
KIDNEY_L [2]: 1.1 g
KIDNEY_R [2]: 1.1 g
KIDNEY_TOTAL [2]: 2.3 g
KIDNEY_L [3]: 1.2 g
KIDNEY_R [3]: 1.2 g
KIDNEY_TOTAL [3]: 2.4 g
KIDNEY_L [4]: 1.4 g
KIDNEY_R [4]: 1.4 g
KIDNEY_TOTAL [4]: 2.7 g
LIVER [2]: 13.1 g
LIVER [3]: 13.9 g
LIVER [4]: 16 g
ALP [2]: 827 IU/L
AST [2]: 68 IU/L
BUN [2]: 17.8 mg/dL
CRE [2]: 0.6 mg/dL
DBIL [2]: 0.004 mg/dL
GLC [2]: 198.6 mg/dL
IP [2]: 8.3 mg/dL
K [2]: 4.9 meq/L
LDH [2]: 108.4 IU/L
Na [2]: 140.6 meq/L
PL [2]: 150 mg/dL
RALB [2]: 3.9 g/dL
TBIL [2]: 0.3 mg/dL
TC [2]: 74.6 mg/dL
TG [2]: 132.6 mg/dL
TP [2]: 6.1 g/dL
gamma-GTP [2]: 1.8 IU/L
ALP [3]: 668.4 IU/L
AST [3]: 55.2 IU/L
BUN [3]: 18.2 mg/dL
CRE [3]: 0.6 mg/dL
DBIL [3]: 0.066 mg/dL
GLC [3]: 202.8 mg/dL
IP [3]: 7.9 mg/dL
K [3]: 5 meq/L
LDH [3]: 78.4 IU/L
Na [3]: 139.6 meq/L
PL [3]: 154.2 mg/dL
RALB [3]: 3.9 g/dL
TBIL [3]: 0.3 mg/dL
TC [3]: 68.6 mg/dL
TG [3]: 205.8 mg/dL
TP [3]: 6.3 g/dL
gamma-GTP [3]: 1.4 IU/L
ALP [4]: 557.2 IU/L
AST [4]: 56.4 IU/L
BUN [4]: 20.2 mg/dL
CRE [4]: 0.6 mg/dL
DBIL [4]: 0.014 mg/dL
GLC [4]: 179.8 mg/dL
IP [4]: 7.2 mg/dL
K [4]: 4.9 meq/L
LDH [4]: 77.2 IU/L
Na [4]: 140.6 meq/L
PL [4]: 157.4 mg/dL
RALB [4]: 4 g/dL
TBIL [4]: 0.3 mg/dL
TC [4]: 79.6 mg/dL
TG [4]: 165 mg/dL
TP [4]: 6.3 g/dL
gamma-GTP [4]: 0.8 IU/L
TERMINAL_BW [5]: 234.9 g
Bas [5]: 0%
Eos [5]: 0.8%
Fbg [5]: 239.4 mg/dL
Hb [5]: 14 g/dL
Ht [5]: 42.3%
MCHC [5]: 33%
MCV [5]: 62.8 fL
Mono [5]: 8%
Neu [5]: 7.2%
Plat [5]: 125.9 x10_4/uL
RBC [5]: 673.8 x10_4/ul
Ret [5]: 5.5%
WBC [5]: 119.2 x10_2/uL
KIDNEY_L [5]: 1 g
KIDNEY_R [5]: 1 g
KIDNEY_TOTAL [5]: 2 g
LIVER [5]: 10.7 g
ALP [5]: 787.6 IU/L
AST [5]: 66.8 IU/L
BUN [5]: 16 mg/dL
CRE [5]: 0.5 mg/dL
DBIL [5]: 0.002 mg/dL
GLC [5]: 194.8 mg/dL
IP [5]: 8.8 mg/dL
K [5]: 4.6 meq/L
LDH [5]: 113.2 IU/L
Na [5]: 139.4 meq/L
RALB [5]: 3.6 g/dL
TBIL [5]: 0.3 mg/dL
TC [5]: 73.4 mg/dL
TG [5]: 66 mg/dL
TP [5]: 5.8 g/dL
gamma-GTP [5]: 1.8 IU/L
TERMINAL_BW [6]: 264.5 g
TERMINAL_BW [7]: 308 g
TERMINAL_BW [8]: 375.5 g
Bas [6]: 0%
Eos [6]: 0.8%
Fbg [6]: 232.6 mg/dL
Hb [6]: 14 g/dL
Ht [6]: 41.7%
MCHC [6]: 33.4%
MCV [6]: 63.4 fL
Mono [6]: 4.8%
Neu [6]: 9%
Plat [6]: 115.2 x10_4/uL
RBC [6]: 658 x10_4/ul
Ret [6]: 5.9%
WBC [6]: 129.4 x10_2/uL
Bas [7]: 0%
Eos [7]: 0.8%
Fbg [7]: 227.2 mg/dL
Hb [7]: 14.7 g/dL
Ht [7]: 44%
MCHC [7]: 33.4%
MCV [7]: 60.7 fL
Mono [7]: 2.8%
Neu [7]: 6%
Plat [7]: 121.9 x10_4/uL
RBC [7]: 726.2 x10_4/ul
Ret [7]: 3.5%
WBC [7]: 131.2 x10_2/uL
Bas [8]: 0%
Eos [8]: 1%
Fbg [8]: 225 mg/dL
Hb [8]: 15.6 g/dL
Ht [8]: 46.4%
MCHC [8]: 33.5%
MCV [8]: 56.7 fL
Mono [8]: 4.4%
Neu [8]: 7.6%
Plat [8]: 107.2 x10_4/uL
RBC [8]: 819 x10_4/ul
Ret [8]: 2%
WBC [8]: 119 x10_2/uL
KIDNEY_L [6]: 1.1 g
KIDNEY_R [6]: 1.1 g
KIDNEY_TOTAL [6]: 2.2 g
KIDNEY_L [7]: 1.2 g
KIDNEY_R [7]: 1.3 g
KIDNEY_TOTAL [7]: 2.5 g
KIDNEY_L [8]: 1.3 g
KIDNEY_R [8]: 1.3 g
KIDNEY_TOTAL [8]: 2.6 g
LIVER [6]: 12.2 g
LIVER [7]: 13.1 g
LIVER [8]: 14.5 g
ALP [6]: 835.8 IU/L
AST [6]: 65.4 IU/L
BUN [6]: 16.8 mg/dL
CRE [6]: 0.5 mg/dL
DBIL [6]: 0.016 mg/dL
GLC [6]: 193.4 mg/dL
IP [6]: 7.7 mg/dL
K [6]: 5.1 meq/L
LDH [6]: 96.6 IU/L
Na [6]: 138.8 meq/L
PL [6]: 156.2 mg/dL
RALB [6]: 3.8 g/dL
TBIL [6]: 0.3 mg/dL
TC [6]: 80.6 mg/dL
TG [6]: 120.4 mg/dL
TP [6]: 5.8 g/dL
gamma-GTP [6]: 1.8 IU/L
ALP [7]: 712.2 IU/L
AST [7]: 56.6 IU/L
BUN [7]: 18.6 mg/dL
CRE [7]: 0.5 mg/dL
DBIL [7]: 0.04 mg/dL
GLC [7]: 190.2 mg/dL
IP [7]: 7.7 mg/dL
K [7]: 4.9 meq/L
LDH [7]: 75.8 IU/L
Na [7]: 140 meq/L
PL [7]: 159.8 mg/dL
RALB [7]: 3.9 g/dL
TBIL [7]: 0.3 mg/dL
TC [7]: 77.4 mg/dL
TG [7]: 168.2 mg/dL
TP [7]: 6.1 g/dL
gamma-GTP [7]: 0.8 IU/L
ALP [8]: 548.6 IU/L
AST [8]: 59.4 IU/L
BUN [8]: 18.6 mg/dL
CRE [8]: 0.6 mg/dL
DBIL [8]: 0.016 mg/dL
GLC [8]: 187.8 mg/dL
IP [8]: 7.1 mg/dL
K [8]: 4.3 meq/L
LDH [8]: 84.8 IU/L
Na [8]: 141.2 meq/L
PL [8]: 146.8 mg/dL
RALB [8]: 4.1 g/dL
TBIL [8]: 0.3 mg/dL
TC [8]: 76.8 mg/dL
TG [8]: 121.4 mg/dL
TP [8]: 6.3 g/dL
gamma-GTP [8]: 1.6 IU/L

Reference: ChEMBL document CHEMBL3885861, “Open TG-GATES”
